Assays:
[1] = tested on: galium; experiment: Test D postemergence; assay type: in vivo, Galium aparine; settings: scale 0 to 100
In short: (§1)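 Formulation was a non-phytotoxic solvent mixture plus surfactant, applied either to soil at planting (silt loam, preemergence) or to foliage of 2–18 cm plants (postemergence). Visual evaluation versus controls followed at 14–21 days, scored 0–100.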

[2] = tested on: pigweed; experiment: Test D postemergence; assay type: in vivo, Amaranthus retroflexus; settings: scale 0 to 100
In short: as §1

[3] = tested on: buckwheat, wild; experiment: Test D postemergence; assay type: in vivo, Polygonum convolvulus; settings: scale 0 to 100
In short: as §1

[4] = tested on: kochia; experiment: Test F preemergence; assay type: in vivo, Kochia scoparia
In short: (§2)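 Test chemicals in a non-phytotoxic solvent with surfactant were applied preemergence to seeds sown in silt loam, or postemergence to plants 2–18 cm tall (1- to 4-leaf stage). Plants were kept in a greenhouse for 14–21 days and then rated visually against controls on a 0 (no effect) to 100 (complete control) scale.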

[5] = tested on: windgrass; experiment: Test D preemergence; assay type: in vivo, Apera spica-venti; settings: scale 0 to 100
In short: as §1

[6] = tested on: common ragweed; experiment: Test F preemergence; assay type: in vivo, Ambrosia elation
In short: as §2

[7] = tested on: oilseed rape; experiment: Test D postemergence; assay type: in vivo, Brassica napus; settings: scale 0 to 100
In short: as §1

[8] = tested on: kochia; experiment: Test D postemergence; assay type: in vivo, Kochia scoparia; settings: scale 0 to 100
In short: as §1

[9] = tested on: soybean; experiment: Test F preemergence; assay type: in vivo, Glycine max
In short: as §2

[10] = tested on: southern sandbur; experiment: Test F preemergence; assay type: in vivo, Cenchrus echinatus
In short: as §2

[11] = tested on: pigweed, palmer; experiment: Test F preemergence; assay type: in vivo, Amaranthus palmeri
In short: as §2

[12] = tested on: barley, winter; experiment: Test D postemergence; assay type: in vivo, Hordeum vulgare; settings: scale 0 to 100
In short: as §1

[13] = tested on: barley, spring; experiment: Test D postemergence; assay type: in vivo, Hordeum vulgare; settings: scale 0 to 100
In short: as §1

[14] = tested on: bromegrass, downy; experiment: Test D preemergence; assay type: in vivo, Bromus tectorum; settings: scale 0 to 100
In short: as §1

[15] = Preemergence, 62 g ai/ha, scale 0 to 100
[16] = Preemergence, 125 g ai/ha, scale 0 to 100
[17] = preemergence, 8 g ai/ha, scale 0 to 100, 100 is complete control

Compound: CCOc1cc(C(=O)NC(C)C)nn1Cc1ccnc(C(F)(F)F)c1 [Compound 188]
- Galium plant response rating ([1]; Postemergence, 31 g ai/ha): 75
- Galium plant response rating ([1]; Postemergence, 125 g ai/ha): 85
- Galium plant response rating ([1]; Postemergence, 250 g ai/ha): 90
- Galium plant response rating ([1]; postemergence, 62 g ai/ha): 75
- Pigweed plant response rating ([2]; Postemergence, 31 g ai/ha): 40
- Pigweed plant response rating ([2]; Postemergence, 125 g ai/ha): 60
- Pigweed plant response rating ([2]; Postemergence, 250 g ai/ha): 80
- Pigweed plant response rating ([2]; postemergence, 62 g ai/ha): 40
- Buckwheat, Wild plant response rating ([3]; Postemergence, 31 g ai/ha): 60
- Buckwheat, Wild plant response rating ([3]; Postemergence, 125 g ai/ha): 70
- Buckwheat, Wild plant response rating ([3]; Postemergence, 250 g ai/ha): 70
- Buckwheat, Wild plant response rating ([3]; postemergence, 62 g ai/ha): 60
- Plant response rating, Kochia [4, 15]: 98
- Plant response rating, Kochia [4, 16]: 100
- Plant response rating, Kochia [4, 17]: 0
- Plant response rating, Windgrass ([5]; 62 g ai/ha): 100
- Plant response rating, Windgrass ([5]; 125 g ai/ha): 100
- Plant response rating, Windgrass ([5]; 250 g ai/ha): 100
- Plant response rating, Common Ragweed ([6]; Preemergence, 16 g ai/ha, scale 0 to 100): 30
- Plant response rating, Common Ragweed [6, 15]: 90
- Plant response rating, Common Ragweed [6, 16]: 90
- Plant response rating, Common Ragweed [6, 17]: 0
- Oilseed Rape plant response rating ([7]; Postemergence, 31 g ai/ha): 55
- Oilseed Rape plant response rating ([7]; Postemergence, 125 g ai/ha): 55
- Oilseed Rape plant response rating ([7]; Postemergence, 250 g ai/ha): 70
- Oilseed Rape plant response rating ([7]; postemergence, 62 g ai/ha): 55
- Kochia plant response rating ([8]; Postemergence, 31 g ai/ha): 75
- Kochia plant response rating ([8]; Postemergence, 125 g ai/ha): 80
- Kochia plant response rating ([8]; Postemergence, 250 g ai/ha): 85
- Kochia plant response rating ([8]; postemergence, 62 g ai/ha): 75
- Plant response rating, Soybean [9, 15]: 30
- Plant response rating, Soybean [9, 16]: 85
- Plant response rating, Soybean [9, 17]: 0
- Plant response rating, Southern Sandbur [10, 15]: 65
- Plant response rating, Southern Sandbur [10, 16]: 100
- Plant response rating, Southern Sandbur [10, 17]: 0
- Plant response rating, Pigweed, Palmer [11, 16]: 50
- Plant response rating, Pigweed, Palmer [11, 17]: 0
- Barley, Winter plant response rating ([12]; Postemergence, 31 g ai/ha): 15
- Barley, Winter plant response rating ([12]; Postemergence, 125 g ai/ha): 40
- Barley, Winter plant response rating ([12]; Postemergence, 250 g ai/ha): 65
- Barley, Winter plant response rating ([12]; postemergence, 62 g ai/ha): 15
- Barley, Spring plant response rating ([13]; Postemergence, 31 g ai/ha): 15
- Barley, Spring plant response rating ([13]; Postemergence, 125 g ai/ha): 25
- Barley, Spring plant response rating ([13]; Postemergence, 250 g ai/ha): 65
- Barley, Spring plant response rating ([13]; postemergence, 62 g ai/ha): 15
- Plant response rating, Bromegrass, Downy ([14]; 31 g ai/ha): 20
- Plant response rating, Bromegrass, Downy ([14]; 62 g ai/ha): 75
- Plant response rating, Bromegrass, Downy ([14]; 125 g ai/ha): 85
- Plant response rating, Bromegrass, Downy ([14]; 250 g ai/ha): 100

Source: patent US20150105252A1, “SUBSTITUTED PYRAZOLES AS HERBICIDES” (E I DU PONT DE NEMOURS AND COMPANY, priority 2013, published 2015)
